Test results from ChEMBL document CHEMBL5154749 (Eur J Med Chem, 2022).
pIC50: −log10 of the molar value.

target: Serine/threonine-protein kinase ATR (Homo sapiens, UniProt Q13535); assay: Inhibition of human recombinant full length ATR using GST-cMyc-p53 as substrate incubated for 40 mins in presence of ATP by HTRF assay; conditions: not given
Sequence (Q13535 whole entry): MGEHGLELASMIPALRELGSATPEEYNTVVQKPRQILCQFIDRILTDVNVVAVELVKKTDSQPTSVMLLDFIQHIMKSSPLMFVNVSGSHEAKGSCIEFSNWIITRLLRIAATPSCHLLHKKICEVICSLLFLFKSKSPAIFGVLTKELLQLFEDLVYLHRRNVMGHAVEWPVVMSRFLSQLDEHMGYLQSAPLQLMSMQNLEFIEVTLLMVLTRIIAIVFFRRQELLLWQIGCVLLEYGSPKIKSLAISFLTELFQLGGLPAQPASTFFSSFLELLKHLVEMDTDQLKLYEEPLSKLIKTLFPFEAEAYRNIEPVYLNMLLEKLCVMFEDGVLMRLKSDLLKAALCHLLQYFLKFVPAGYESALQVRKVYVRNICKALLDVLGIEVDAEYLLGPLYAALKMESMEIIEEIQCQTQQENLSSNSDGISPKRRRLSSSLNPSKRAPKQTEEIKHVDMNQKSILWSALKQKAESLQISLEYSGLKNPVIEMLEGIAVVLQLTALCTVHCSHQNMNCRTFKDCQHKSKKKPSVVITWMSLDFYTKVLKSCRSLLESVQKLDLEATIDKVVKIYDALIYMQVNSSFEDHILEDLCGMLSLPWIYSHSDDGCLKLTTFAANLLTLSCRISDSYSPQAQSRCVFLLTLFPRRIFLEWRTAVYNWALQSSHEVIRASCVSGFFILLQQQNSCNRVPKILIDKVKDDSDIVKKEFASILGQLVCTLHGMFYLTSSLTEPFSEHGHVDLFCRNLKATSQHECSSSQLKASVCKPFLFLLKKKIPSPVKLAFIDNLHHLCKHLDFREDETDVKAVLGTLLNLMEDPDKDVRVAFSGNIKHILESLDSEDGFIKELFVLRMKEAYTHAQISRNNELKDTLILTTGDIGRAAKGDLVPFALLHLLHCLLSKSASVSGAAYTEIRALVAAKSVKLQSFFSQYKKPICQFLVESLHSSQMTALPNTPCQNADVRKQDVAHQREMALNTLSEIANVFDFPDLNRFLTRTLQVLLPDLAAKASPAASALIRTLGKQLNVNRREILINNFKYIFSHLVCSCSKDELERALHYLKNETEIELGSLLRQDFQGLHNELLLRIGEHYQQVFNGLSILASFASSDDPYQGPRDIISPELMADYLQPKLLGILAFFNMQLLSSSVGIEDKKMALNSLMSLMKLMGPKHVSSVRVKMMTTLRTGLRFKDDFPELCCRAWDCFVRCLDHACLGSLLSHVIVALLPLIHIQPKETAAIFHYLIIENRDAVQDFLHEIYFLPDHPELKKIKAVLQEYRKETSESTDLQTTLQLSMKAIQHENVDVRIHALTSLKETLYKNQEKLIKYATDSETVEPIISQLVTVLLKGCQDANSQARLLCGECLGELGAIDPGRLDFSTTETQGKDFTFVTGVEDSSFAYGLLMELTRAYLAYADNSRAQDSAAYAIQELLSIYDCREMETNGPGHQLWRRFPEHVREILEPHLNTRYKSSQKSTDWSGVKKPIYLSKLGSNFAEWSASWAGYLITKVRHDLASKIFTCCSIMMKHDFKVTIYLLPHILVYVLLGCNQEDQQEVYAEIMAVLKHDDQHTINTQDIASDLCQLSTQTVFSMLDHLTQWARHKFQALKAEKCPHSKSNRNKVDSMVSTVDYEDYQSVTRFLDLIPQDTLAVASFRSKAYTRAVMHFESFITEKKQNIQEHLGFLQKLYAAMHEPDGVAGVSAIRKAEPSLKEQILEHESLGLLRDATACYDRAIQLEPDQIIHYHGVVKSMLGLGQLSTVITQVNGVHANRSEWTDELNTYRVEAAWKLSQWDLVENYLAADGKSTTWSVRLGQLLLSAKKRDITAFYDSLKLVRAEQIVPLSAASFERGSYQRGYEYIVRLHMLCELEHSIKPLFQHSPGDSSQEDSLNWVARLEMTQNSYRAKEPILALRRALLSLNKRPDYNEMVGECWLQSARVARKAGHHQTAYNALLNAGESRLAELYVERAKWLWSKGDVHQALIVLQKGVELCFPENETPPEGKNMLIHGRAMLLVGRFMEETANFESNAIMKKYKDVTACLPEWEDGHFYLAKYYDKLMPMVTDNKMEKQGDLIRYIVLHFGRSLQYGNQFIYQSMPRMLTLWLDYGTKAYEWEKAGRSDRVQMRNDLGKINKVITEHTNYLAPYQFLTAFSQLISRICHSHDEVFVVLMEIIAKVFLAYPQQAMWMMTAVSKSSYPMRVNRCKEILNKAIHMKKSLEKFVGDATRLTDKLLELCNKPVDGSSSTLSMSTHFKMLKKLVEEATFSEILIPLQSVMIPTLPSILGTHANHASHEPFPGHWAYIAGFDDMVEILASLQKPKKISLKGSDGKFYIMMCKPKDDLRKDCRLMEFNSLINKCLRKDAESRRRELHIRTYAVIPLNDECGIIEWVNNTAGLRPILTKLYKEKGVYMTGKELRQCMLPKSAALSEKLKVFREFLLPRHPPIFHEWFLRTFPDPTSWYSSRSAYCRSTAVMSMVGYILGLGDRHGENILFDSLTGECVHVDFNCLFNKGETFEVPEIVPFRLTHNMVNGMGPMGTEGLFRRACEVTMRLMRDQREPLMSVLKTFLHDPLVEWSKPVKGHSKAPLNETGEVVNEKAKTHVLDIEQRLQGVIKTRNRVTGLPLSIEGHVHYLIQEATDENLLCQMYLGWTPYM

`Cc1ccc2[nH]ncc2c1-c1nc(N2CCOC[C@H]2C)c2cc(-c3ccnn3C)ccc2n1` and `C[C@@H]1COCCN1c1nc(-c2cn[nH]c2)nc2ccc(-c3ccnn3C)cc12` cannot be ordered by pIC50: < 5.00 for the first, < 5.00 for the second.

`C[C@@H]1COCCN1c1nc(-c2cccc3[nH]ccc23)nc2ccc(-c3cccnc3)cc12` and `C[C@@H]1COCCN1c1nc(-c2cccc3[nH]ccc23)nc2ccc(-c3ccncc3)cc12` are within 0.2 log units of each other in pIC50: 6.74 for the first, 6.56 for the second.

Compared with `C[C@H]1COCCN1c1nc(-c2cccc3[nH]ccc23)nc2ccc(-c3ccnn3C)cc12`, `CCn1nccc1-c1ccc2nc(-c3cccc4[nH]ccc34)nc(N3CCOC[C@H]3C)c2c1` is 1.59 log units higher in pIC50: 6.15 for the first, 7.74 for the second.

First: Cn1nccc1-c1ccc2nc(-c3cccc4[nH]ccc34)nc(N3CCOCC3)c2c1
Second: Cn1nccc1-c1ccc2nc(-c3cccc4[nH]ccc34)nc(N3CC[C@H](N)C3)c2c1
The pIC50 of the first is higher: 7.05 for the first, < 5.00 for the second.

First: Cn1nccc1-c1ccc2nc(-c3cccc4[nH]ccc34)nc(N3C4CCC3COC4)c2c1
Second: Cn1nccc1-c1ccc2nc(-c3cccc4[nH]ccc34)nc(N3CC4CC3CO4)c2c1 (configuration not stated)
The pIC50 of the first is 1.38 log units higher: 7.60 for the first, 6.22 for the second. The first is the more potent here.

Going from `Cc1ncc(-c2ccc3nc(-c4cccc5[nH]ccc45)nc(N4CCOC[C@H]4C)c3c2)s1` to `C[C@@H]1COCCN1c1nc(-c2cccc3[nH]ccc23)nc2ccc(-c3cnn(C)c3)cc12`, the pIC50 rises from 5.61 to 6.15 (0.54 log units).

First: C[C@@H]1COCCN1c1nc(-c2cccc3[nH]ccc23)nc2ccc(-c3ccnn3C3CCCCO3)cc12 (some centres not stated)
Second: CC(C)n1nccc1-c1ccc2nc(-c3cccc4[nH]ccc34)nc(N3CCOC[C@H]3C)c2c1
The pIC50 of the first is 0.72 log units lower: 6.36 for the first, 7.08 for the second.

Compared with `Cn1nccc1-c1ccc2nc(-c3cccc4[nH]ccc34)nc(N3CC4CCC(C3)O4)c2c1`, `C[C@@H]1CN(c2nc(-c3cccc4[nH]ccc34)nc3ccc(-c4ccnn4C)cc23)C[C@H](C)O1` is lower in pIC50: 7.35 for the first, < 5.00 for the second. The first is the more potent here.

`Cn1nccc1-c1ccc2nc(-c3cccc4[nH]ccc34)nc(N3CCC[C@H](N)C3)c2c1` and `Cn1nccc1-c1ccc2nc(-c3cccc4[nH]ccc34)nc(N3CCC[C@@H](N)C3)c2c1` cannot be ordered by pIC50: < 5.00 for the first, < 5.00 for the second.

First: C[C@@H]1COCCN1c1nc(-c2cc(F)cc3[nH]ccc23)nc2ccc(-c3ccnn3C)cc12
Second: C[C@@H]1COCCN1c1nc(-c2cc(C(F)(F)F)cc3[nH]ccc23)nc2ccc(-c3ccnn3C)cc12
The pIC50 of the first is higher: 7.02 for the first, < 5.00 for the second. The first is the more potent here.

`C[C@@H]1COCCN1c1nc(-c2cccc3[nH]ccc23)nc2ccc(-c3ccccc3)cc12` and `C[C@@H]1COCCN1c1nc(-c2cccc3[nH]ccc23)nc2ccc(-c3ccsc3)cc12` are within 0.2 log units of each other in pIC50: 5.53 for the first, 5.55 for the second.

First: CCOC(c1ccc2nc(-c3cccc4[nH]ccc34)nc(N3CCOC[C@H]3C)c2c1)n1cccn1 (some centres not stated)
Second: C[C@@H]1COCCN1c1nc(-c2cccc3[nH]ccc23)nc2ccc(-c3cccn3C)cc12
The pIC50 of the first is 0.49 log units lower: 6.05 for the first, 6.54 for the second. The second is the more potent here.

Compared with `C[C@@H]1COCCN1c1nc(-c2ccnc3[nH]ccc23)nc2ccc(-c3ccnn3C)cc12`, `C[C@@H]1COCCN1c1nc(-c2c[nH]c3ncccc23)nc2ccc(-c3ccnn3C)cc12` is 1.46 log units lower in pIC50: 6.94 for the first, 5.48 for the second.

`Cn1nccc1-c1ccc2nc(-c3cccc4[nH]ccc34)nc(N3CCN(S(C)(=O)=O)CC3)c2c1` and `Cn1nccc1-c1ccc2nc(-c3cccc4[nH]ccc34)nc(N3CCC(N)C3)c2c1` (configuration not stated) cannot be ordered by pIC50: < 5.00 for the first, < 5.00 for the second.

Going from `C[C@@H]1COCCN1c1nc(-c2cccc3[nH]ccc23)nc2ccc(-c3ccc(=O)n(C)c3)cc12` to `C[C@@H]1COCCN1c1nc(-c2cccc3[nH]ccc23)nc2ccc(-c3ccoc3)cc12`, the pIC50 falls from 6.71 to 5.63 (1.08 log units). The first is the more potent here.

First: C[C@@H]1CNCCN1c1nc(-c2cccc3[nH]ccc23)nc2ccc(-c3ccnn3C)cc12
Second: C[C@@H]1COCCN1c1nc(-c2cccc3[nH]ccc23)nc2ccc(-c3cncn3C)cc12
The pIC50 of the first is lower: < 5.00 for the first, 7.48 for the second.

First: C[C@@H]1COCCN1c1nc(-c2cccc3[nH]ccc23)nc2ccc(-c3ccc(N4CCOCC4)nc3)cc12
Second: C[C@@H]1COCCN1c1nc(-c2cccc3[nH]ccc23)nc2ccc(-c3ccc(C#N)nc3)cc12
The pIC50 of the first is higher: 6.24 for the first, < 5.00 for the second.

Going from `C[C@@H]1COCCN1c1nc(-c2c[nH]c3ncc(F)cc23)nc2ccc(-c3ccnn3C)cc12` to `C[C@@H]1COCCN1c1nc(-c2cnc3[nH]ccc3c2)nc2ccc(-c3ccnn3C)cc12`, the pIC50 rises from 5.45 to 5.75 (0.30 log units).

Compared with `Cc1noc(C)c1-c1ccc2nc(-c3cccc4[nH]ccc34)nc(N3CCOC[C@H]3C)c2c1`, `C[C@@H]1COCCN1c1nc(-c2c[nH]c3ccccc23)nc2ccc(-c3ccnn3C)cc12` is 0.82 log units lower in pIC50: 7.49 for the first, 6.67 for the second. The first is the more potent here.

`C[C@@H]1COCCN1c1nc(-c2cnn(C3CCNCC3)c2)nc2ccc(-c3ccnn3C)cc12` and `C[C@@H]1COCCN1c1nc(-c2cc[nH]n2)nc2ccc(-c3ccnn3C)cc12` cannot be ordered by pIC50: < 5.00 for the first, < 5.00 for the second.

With `COC(=O)C1CN(c2nc(-c3cccc4[nH]ccc34)nc3ccc(-c4ccnn4C)cc23)CCO1` (configuration not stated) the pIC50 was < 5.00.

test system: HT-29; assay: Cytotoxicity against ATM proficient human HT-29 cells assessed as reduction in cell viability incubated for 72 hrs by MTT assay; type: functional, cell-based; conditions: HT-29, 72 h

With `CC(C)n1c(=O)n(C)c2cnc3cc(F)c(-c4ccc(OCCCN5CCCCC5)nc4)cc3c21` [AZD-1390] the pIC50 was < 5.00.
